Data published in USRE38117E1, “Trioxane dimer compound having antiproliferative and antitumor activities” (Hauser, Inc., priority 1995, dated 2003).
Like-named read-outs stand apart in the source and are kept apart here.

Tests used:
Assay type in all cases: cell-based
HL-60(TB) = assay: NCI 60 cell line screen (SRB), Leukemia
T-47D = assay: NCI 60 cell line screen (SRB), Breast Cancer; settings: T-47D (Breast Cancer)
HOP-62 = assay: NCI 60 cell line screen (SRB), Non-Small Cell Lung Cancer; settings: HOP-62 (Non-Small Cell Lung Cancer)
MDA-N = assay: NCI 60 cell line screen (SRB), Breast Cancer
HCT-15 = assay: NCI 60 cell line screen (SRB), Colon Cancer; settings: HCT-15 (Colon Cancer)
UO-31 = assay: NCI 60 cell line screen (SRB), Renal Cancer; settings: UO-31 (Renal Cancer)
SK-MEL-28 = assay: NCI 60 cell line screen (SRB), Melanoma; settings: SK-MEL-28 (Melanoma)
RPMI-8226 = assay: NCI 60 cell line screen (SRB), Leukemia; settings: RPMI-8226 (Leukemia)
MDA-MB231/ATCC = assay: NCI 60 cell line screen (SRB), Breast Cancer
UACC-62 = assay: NCI 60 cell line screen (SRB), Melanoma; settings: UACC-62 (Melanoma)
NCI-H226 = assay: NCI 60 cell line screen (SRB), Non-Small Cell Lung Cancer
A498 = assay: NCI 60 cell line screen (SRB), Renal Cancer
MALME-3M = assay: NCI 60 cell line screen (SRB), Melanoma; settings: MALME-3M (Melanoma)
UACC-257 = assay: NCI 60 cell line screen (SRB), Melanoma; settings: UACC-257 (Melanoma)
ACHN = assay: NCI 60 cell line screen (SRB), Renal Cancer
M14 = assay: NCI 60 cell line screen (SRB), Melanoma
TK-10 = assay: NCI 60 cell line screen (SRB), Renal Cancer; settings: TK-10 (Renal Cancer)
A549/ATCC = assay: NCI 60 cell line screen (SRB), Non-Small Cell Lung Cancer
OVCAR-5 = assay: NCI 60 cell line screen (SRB), Ovarian Cancer; settings: OVCAR-5 (Ovarian Cancer)
SNB-75 = assay: NCI 60 cell line screen (SRB), CNS Cancer; settings: SNB-75 (CNS Cancer)
NCI-H23 = assay: NCI 60 cell line screen (SRB), Non-Small Cell Lung Cancer
HOP-92 = assay: as above; settings: HOP-92 (Non-Small Cell Lung Cancer)
RXF 393 = assay: NCI 60 cell line screen (SRB), Renal Cancer; settings: RXF 393 (Renal Cancer)
IGROVI = assay: NCI 60 cell line screen (SRB), Ovarian Cancer
OVCAR-8 = assay: NCI 60 cell line screen (SRB), Ovarian Cancer; settings: OVCAR-8 (Ovarian Cancer)
SK-OV-3 = assay: NCI 60 cell line screen (SRB), Ovarian Cancer; settings: SK-OV-3 (Ovarian Cancer)
60 cell line panel = assay: NCI 60 cell line screen, values over the whole panel; settings: mean value over the cell line panel
CAKI-1 = assay: NCI 60 cell line screen (SRB), Renal Cancer; settings: CAKI-1 (Renal Cancer)
CCRF-CEM = assay: NCI 60 cell line screen (SRB), Leukemia
LOX IMVI = assay: NCI 60 cell line screen (SRB), Melanoma
OVCAR-3 = assay: NCI 60 cell line screen (SRB), Ovarian Cancer; settings: OVCAR-3 (Ovarian Cancer)
MCF7/ADR-RES = assay: NCI 60 cell line screen (SRB), Breast Cancer

C[C@@H]1CC[C@H]2[C@@H](C)C(=O)O[C@@H]3O[C@@]4(C)CC[C@@H]1[C@]32OO4 [QHS, 3,6,9-trimethyl-9,10b-epidioxyperhydropyrano[4,3,2-jk]benzoxepin-2-one, reference compound]
−4.17 M: Log10GI50 (A549/ATCC)
>−4.00 M: Log10LC50 (HL-60(TB); HL-60(TB) (Leukemia)) | Log10LC50 (T-47D) | Log10TGI (T-47D) | Log10GI50 (HOP-62) | Log10LC50 (HOP-62) | Log10TGI (HOP-62) | Log10GI50 (MDA-N) | Log10LC50 (MDA-N) | Log10TGI (MDA-N) | Log10GI50 (HCT-15) | Log10LC50 (HCT-15) | Log10TGI (HCT-15) | Log10LC50 (UO-31) | Log10GI50 (SK-MEL-28) | Log10LC50 (SK-MEL-28) | Log10TGI (SK-MEL-28) | Log10GI50 (RPMI-8226) | Log10LC50 (RPMI-8226) | Log10TGI (RPMI-8226) | Log10LC50 (MDA-MB231/ATCC) | Log10GI50 (UACC-62) | Log10LC50 (UACC-62) | Log10TGI (UACC-62) | Log10GI50 (NCI-H226) | Log10LC50 (NCI-H226) | Log10TGI (NCI-H226) | Log10GI50 (A498) | Log10LC50 (A498) | Log10TGI (A498) | Log10LC50 (MALME-3M) | Log10GI50 (UACC-257) | Log10LC50 (UACC-257) | Log10TGI (UACC-257) | Log10GI50 (ACHN) | Log10LC50 (ACHN) | Log10TGI (ACHN) | Log10LC50 (M14) | Log10TGI (M14) | Log10GI50 (TK-10) | Log10LC50 (TK-10) | Log10TGI (TK-10) | Log10LC50 (A549/ATCC) | Log10TGI (A549/ATCC) | Log10GI50 (OVCAR-5) | Log10LC50 (OVCAR-5) | Log10TGI (OVCAR-5) | Log10GI50 (SNB-75) | Log10LC50 (SNB-75) | Log10TGI (SNB-75) | Log10GI50 (NCI-H23) | Log10LC50 (NCI-H23) | Log10TGI (NCI-H23) | Log10GI50 (HOP-92) | Log10LC50 (HOP-92) | Log10TGI (HOP-92) | Log10LC50 (RXF 393) | Log10TGI (RXF 393) | Log10LC50 (IGROVI) | Log10TGI (IGROVI) | Log10GI50 (OVCAR-8) | Log10LC50 (OVCAR-8) | Log10TGI (OVCAR-8)
−4.08 M: Log10GI50 (RXF 393)
−4.26 M: Log10GI50 (HL-60(TB); HL-60(TB) (Leukemia))
−4.20 M: Log10GI50 (MDA-MB231/ATCC)
−4.31 M: Log10GI50 (IGROVI)
−4.00 M: Log10TGI (HL-60(TB); HL-60(TB) (Leukemia)) | Log10TGI (UO-31) | Log10TGI (MDA-MB231/ATCC)
−4.06 M: Log10GI50 (UO-31) | Log10TGI (MALME-3M)

COC1OC2(C)CCC3CCCC(CCOCCC4CCCC5CCC6(C)OOC45C(OC)O6)C31OO2 (centres unmarked) [Compound 6, Trioxane Ether Dimer]
−6.52 M: Log10GI50 (LOX IMVI)
−4.61 M: Log10TGI (CCRF-CEM)
−5.51 M: Log10GI50 (HOP-92)
−4.26 M: Log10TGI MG MID (60 cell line panel)
−6.27 M: Log10GI50 (CCRF-CEM)
−6.13 M: Log10GI50 (MCF7/ADR-RES)
−4.05 M: Log10LC50 MG MID (60 cell line panel)
>−4.00 M: Log10LC50 (HL-60(TB)) | Log10LC50 (HOP-62) | Log10TGI (HOP-62) | Log10LC50 (MDA-N) | Log10TGI (MDA-N) | Log10LC50 (HCT-15) | Log10TGI (HCT-15) | Log10LC50 (SK-OV-3) | Log10TGI (SK-OV-3) | Log10LC50 (CAKI-1) | Log10TGI (CAKI-1) | Log10LC50 (SK-MEL-28) | Log10TGI (SK-MEL-28) | Log10LC50 (RPMI-8226) | Log10LC50 (MDA-MB231/ATCC) | Log10TGI (MDA-MB231/ATCC) | Log10LC50 (UACC-62) | Log10TGI (UACC-62) | Log10LC50 (NCI-H226) | Log10TGI (NCI-H226) | Log10GI50 (A498) | Log10LC50 (A498) | Log10TGI (A498) | Log10LC50 (MALME-3M) | Log10TGI (MALME-3M) | Log10LC50 (UACC-257) | Log10TGI (UACC-257) | Log10LC50 (CCRF-CEM) | Log10LC50 (ACHN) | Log10TGI (ACHN) | Log10LC50 (M14) | Log10TGI (M14) | Log10LC50 (TK-10) | Log10LC50 (A549/ATCC) | Log10TGI (A549/ATCC) | Log10LC50 (OVCAR-5) | Log10TGI (OVCAR-5) | Log10LC50 (SNB-75) | Log10TGI (SNB-75) | Log10LC50 (NCI-H23) | Log10TGI (NCI-H23) | Log10LC50 (OVCAR-3) | Log10TGI (OVCAR-3) | Log10LC50 (HOP-92) | Log10LC50 (IGROVI) | Log10LC50 (OVCAR-8) | Log10TGI (OVCAR-8) | Log10LC50 (MCF7/ADR-RES) | Log10TGI (MCF7/ADR-RES)
−6.34 M: Log10GI50 (NCI-H23)
−5.69 M: Log10GI50 (MALME-3M)
−7.28 M: Log10GI50 (HCT-15)
−4.13 M: Log10TGI (IGROVI)
−4.83 M: Log10TGI (LOX IMVI)
−5.36 M: Log10GI50 (NCI-H226)
−4.38 M: Log10LC50 (UO-31)
−6.39 M: Log10GI50 (OVCAR-5)
−6.48 M: Log10GI50 (HL-60(TB))
−6.10 M: Log10GI50 (OVCAR-3)
−6.46 M: Log10GI50 (UACC-62)
−5.99 M: Log10GI50 (ACHN)
−6.19 M: Log10GI50 (MDA-N)
−5.79 M: Log10GI50 (A549/ATCC)
−4.88 M: Log10TGI (TK-10)
−5.77 M: Log10TGI (HL-60(TB))
−5.59 M: Log10GI50 (M14)
−6.69 M: Log10GI50 (RPMI-8226)
−5.68 M: Log10GI50 (UACC-257)
−5.37 M: Log10GI50 (IGROVI)
−4.33 M: Log10LC50 (LOX IMVI)
−4.92 M: Log10GI50 (HOP-62)
−5.44 M: Log10GI50 (CAKI-1)
−4.24 M: Log10GI50 (SK-MEL-28)
−5.47 M: Log10TGI (RPMI-8226)
−4.17 M: Log10TGI (HOP-92)
−6.37 M: Log10GI50 (UO-31)
−5.25 M: Log10GI50 (MDA-MB231/ATCC)
−6.33 M: Log10GI50 (OVCAR-8)
−5.60 M: Log10GI50 (TK-10)
